# Experimental data: patent US20050123603A1, “Natural menaquinone 7 compositions” (Natural ASA, priority 2003, published 2005)
# What was measured:
# bone loss = conditions: postmenopausal women, intervention studies; cited from earlier work
# osteocalcin [1] = assay: bone turnover measured as ucOC+cOC during 6-week supplementation; type: in vivo, human
# Description: (§1) An open study was conducted in which 12 volunteers were randomized in two groups receiving either 180 μg MK-7 (menaquinone 7, 0.27 μmol) or 150 μg K1 (0.33 μmol) per day. The MK-7 was obtained from 2 nattoK2 capsules (Natural ASA) per day, the K1 from a pharmacological preparation (Roche). The supplements were taken at 18.00 h of each day during the 6-week study period. Blood was taken between 08.00 and 09.00 h of days 0 (baseline), 3, 7, 14, 21, 28, 35, and 42. A non-treated control group (n=3) served as a reference group, with blood drawings on days 0, 14, 28, and 42.
# (§2) Measurements: vitamin K1, MK-7, under-carboxylated osteocalcin (ucOC) and carboxylated osteocalcin (cOC).
# (§3) Study population: 6 men and 6 women, aged 55-60 (women postmenopausal). Non-treated controls: 1 man, 2 women in the same age range.
# (§4) These values are needed to calculate the vitamin K-status in bone (the ratio cOC/ucOC) and to estimate the bone metabolic activity (cOC+ucOC). Here a remarkable difference between the effects of K1 and nattoK2 (i.e.: MK-7) was found: whereas cOC was increased by K1 supplementation, it was decreased by nattoK2. The importance of this finding will become clear from FIGS. 9 and 10.
# [2] = system: carboxylated osteocalcin (cOC); assay: serum carboxylated osteocalcin (cOC) during 6-week supplementation; type: in vivo, human; conditions: 6-week daily supplementation, K1 150 μg or 180 μg MK-7 from nattoK2, FIG. 8
# Description: as §1, §2, §3
# osteocalcin [3] = assay: vitamin K status of bone, cOC/ucOC ratio, during 6-week supplementation; type: in vivo, human
# Description: as §1, §2, §3, §4
# [4] = serum vitamin K (K1, MK-7) during 6-week daily supplementation with nattoK2 capsules or K1; type: in vivo, human
# Description: as §1, §2, §3
# MK-7 and K1 have different molecular weights (650 and 450, respectively). Therefore, all doses and concentrations were calculated on a molar basis. Since the daily dose of MK-7 from natto was 18% lower than that from K1 (0.27 and 0.33 μmol/day, respectively), it should be kept in mind that the expected results for natto capsules are similarly lower compared to those for K1. […] The normal ranges for K1 and MK-7 in non-treated subjects are between 500 and 1000 pmol/L (FIG. 5C). […] Due to the limited number of participants, the mean baseline levels in the various groups may differ.
# [5] = system: under-carboxylated osteocalcin (ucOC); assay: serum under-carboxylated osteocalcin (ucOC) during 6-week supplementation; type: in vivo, human
# Description: as §1, §2, §3
"serum K1 level, plateau value ([4]; K1 150 μg (0.33 μmol) per day, blood taken about 15 h after intake, mean)",serum K1 level at 15 h after ingestion ([4]; K1 150 μg per day),time to plateau of serum K1 ([4]; K1 150 μg per day),"increase in total vitamin K status relative to baseline (mean plateau value) ([4]; K1 150 μg per day, 6 weeks, FIG. 6) [pmol/L]","serum K1 level at baseline ([4]; K1 group, day 0, mean) [pmol/L]",SMILES,lower rate of bone loss in supplemented groups (bone loss) [%],"bone turnover measured as ucOC+cOC, end of regimen (osteocalcin [1]; K1 150 μg per day, 6 weeks)","bone turnover measured as ucOC+cOC, start of regimen (osteocalcin [1]; K1 group)",treatment-induced change in serum carboxylated osteocalcin (cOC) [2],time to plateau levels of the cOC/ucOC ratio (osteocalcin [3]; K1 supplementation) [days],time to reach decreased ucOC value ([5]; K1 150 μg per day),"serum ucOC after treatment ([5]; K1 150 μg per day, value reached within three days) [µg/L]",serum ucOC at baseline ([5]; K1 group) [µg/L],"time at which mean cOC/ucOC ratio crosses the K1 curve (osteocalcin [3]; menaquinone 7 supplementation, ratio increased gradually, no levelling off) [week]"
around 2000 pmol/L,near-baseline levels,within the first three days,1500,816,CC1=C(C/C=C(\C)CCC[C@H](C)CCC[C@H](C)CCCC(C)C)C(=O)c2ccccc2C1=O [K1],40,5.33,5.28,increased,3,within three days,1.7,2.1,
,,,,,"CC(C)=CCC/C(C)=C/CC/C(C)=C/CC/C(C)=C/CC/C(C)=C/CC/C(C)=C/CC/C(C)=C/CC1=C(C)C(=O)c2ccccc2C1=O [menaquinone 7, (all-E)-2-(3,7,11,15,19,23,27-Heptamethyl-2,6,10,14,18,22,26-octacosaheptaenyl)-3-methyl-1,4-naphthalenedione]",,,,,,,,,5
